Results taken from US7408065B2, “P2X7 receptor antagonists and their use” (AstraZeneca AB, priority 2003, dated 2008).
Counter-ions that a name gives are not always drawn. Like-named read-outs stand apart in the source and are kept apart here.

How the values were obtained:
P2X7 receptor = target: T1, P2X7 receptor (Homo sapiens, UniProt Q99572); assay: P2X7 receptor antagonist activity: bbATP-induced ethidium bromide fluorescence in THP-1 cells; type: cell-based
T1 construct: 200 μl of a suspension of THP-1 cells; endogenous in cells; host or cells: THP-1 cells
T1 sequence (Q99572 1-595): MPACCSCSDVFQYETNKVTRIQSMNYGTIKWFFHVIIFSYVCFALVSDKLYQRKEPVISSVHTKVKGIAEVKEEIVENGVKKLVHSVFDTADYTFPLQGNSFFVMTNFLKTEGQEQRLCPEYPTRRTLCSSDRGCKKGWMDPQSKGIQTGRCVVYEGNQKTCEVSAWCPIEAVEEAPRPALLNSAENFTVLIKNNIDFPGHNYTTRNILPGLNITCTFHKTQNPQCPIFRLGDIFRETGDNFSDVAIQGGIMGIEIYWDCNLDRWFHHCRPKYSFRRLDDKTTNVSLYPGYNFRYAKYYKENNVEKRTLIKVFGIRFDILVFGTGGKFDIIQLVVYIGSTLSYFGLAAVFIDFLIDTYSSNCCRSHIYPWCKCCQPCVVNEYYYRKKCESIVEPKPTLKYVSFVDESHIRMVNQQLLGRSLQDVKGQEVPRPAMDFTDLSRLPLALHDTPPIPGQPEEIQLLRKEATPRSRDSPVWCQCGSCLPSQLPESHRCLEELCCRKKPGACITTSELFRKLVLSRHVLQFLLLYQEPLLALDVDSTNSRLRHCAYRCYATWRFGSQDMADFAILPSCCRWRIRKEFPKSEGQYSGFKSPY
Protocol: Consequently, when the receptor is activated using bbATP in the presence of ethidium bromide (a fluorescent DNA probe), an increase in the fluorescence of intracellular DNA-bound ethidium bromide is observed. The increase in fluorescence can be used as a measure of P2X7 receptor activation and therefore to quantify the effect of a compound on the P2X7 receptor.
In this manner, each of the title compounds of the Examples was tested for antagonist activity at the P2X7 receptor. Thus, the test was performed in 96-well flat bottomed microtitre plates, the wells being filled with 250 μl of test solution comprising 200 μl of a suspension of THP-1 cells (2.5×10^6 cells/ml) containing 10^−4M ethidium bromide, 25 μl of a high potassium buffer solution containing 10^−5M bbATP, and 25 μl of the high potassium buffer solution containing 3×10^−5M test compound. The plate was covered with a plastics sheet and incubated at 37° C. for one hour. […] For the purposes of comparison, bbATP (a P2X7 receptor agonist) and pyridoxal 5-phosphate (a P2X7 receptor antagonist) were used separately in the test as controls.

[1] = THP-1 cells, negative logarithm of concentration reducing bbATP agonist activity by 50%, ethidium bromide fluorescence, 37° C., one hour, read-out: pIC50 (converted)

O=C(CC1CCCCC1)Nc1c(Cl)ccc2nc(NCCCO)ccc12 [Example 5, N-[6-Chloro-2-[(3-hydroxypropyl)amino]-5-quinolinyl]-cyclohexaneacetamide, Hydrochloride]
IC50 (P2X7 receptor; [1]): 126 nM

O=C(CC1CCCCC1)Nc1c(Cl)ccc2nc(NCCNCCO)ccc12 [Example 17, N-[6-Chloro-2-[[2-[(2-hydroxyethyl)amino]ethyl]amino]-5-quinolinyl]-cyclohexaneacetamide, Dihydrochloride]
IC50 (P2X7 receptor; [1]): 25.1 nM

CC1CCC(CC(=O)Nc2cccc3ncccc23)CC1 (stereo not shown) [Example 20, 4-Methyl-N-5-quinolinyl-cyclohexaneacetamide]
IC50 (P2X7 receptor; [1]): 126 nM

CS(=O)(=O)NC(=O)NCCCc1ccc2c(NC(=O)CC3CCCCC3)c(Cl)ccc2n1 [Example 24, N-[6-Chloro-2-[3-[[[(methylsulfonyl)amino]carbonyl]amino]propyl]-5-quinolinyl]-cyclohexaneacetamide]
IC50 (P2X7 receptor): 501 nM | melting point: 151 to 152 °C

O=C(CC1CCCCC1)Nc1c(Cl)ccc2nc(N3CC[C@@H](O)C3)ccc12 [Example 28, N-[6-Chloro-2-[(3R)-3-hydroxy-1-pyrrolidinyl]-5-quinolinyl]-cyclohexaneacetamide]
IC50 (P2X7 receptor; [1]): 39.8 nM | melting point: 226 to 227 °C

CN[C@@H]1CCN(c2ccc3c(NC(=O)CC4CCCCC4)c(Cl)ccc3n2)C1 [Example 33, N-[6-Chloro-2-[(3R)-3-(methylamino)-1-pyrrolidinyl]-5-quinolinyl]-cyclohexaneacetamide]
IC50 (P2X7 receptor; [1]): 25.1 nM | melting point: 169 °C

O=C(CC1CCCCC1)Nc1c(Cl)ccc2nc(N3CCC[C@@H](O)C3)ccc12 [Example 37, N-[6-Chloro-2-[(3R)-3-hydroxy-1-piperidinyl]-5-quinolinyl]-cyclohexaneacetamide]
IC50 (P2X7 receptor; [1]): 50.1 nM | melting point: 209 to 214 °C

O=C(NCC1CCCCC1)c1c(Cl)ccc2ncccc12 [Example 42, 6-Chloro-N-(cyclohexylmethyl)quinoline-5-carboxamide]
IC50 (P2X7 receptor; [1]): 316 nM

O=C(O)CN1CCN(c2ccc3c(C(=O)NCC4CCCCC4)c(Cl)ccc3n2)CC1 [Example 73, 4-[6-Chloro-5-[[(cyclohexylmethyl)amino]carbonyl]-2-quinolinyl]-1-piperazineacetic acid, Acetate]
IC50 (P2X7 receptor; [1]): 398 nM

O=C(CC1CCCCC1)Nc1c(Cl)ccc2nc(N3CCC(c4noc(=O)[nH]4)CC3)ccc12 [Example 102, N-[6-Chloro-2-[4-(4,5-dihydro-5-oxo-1,2,4-oxadiazol-3-yl)-1-piperidinyl]-5-quinolinyl]-cyclohexaneacetamide]
IC50 (P2X7 receptor; [1]): 200 nM | melting point: 233 to 235 °C

O=C1CN([C@H]2CCN(c3ccc4c(C(=O)NCC5CCCCC5)c(Cl)ccc4n3)C2)S(=O)(=O)N1 [Example 112, 6-Chloro-N-(cyclohexylmethyl)-2-[(3S)-3-(1,1-dioxido-4-oxo-1,2,5-thiadiazolidin-2-yl)-1-pyrrolidinyl]-5-quinolinecarboxamide]
IC50 (P2X7 receptor; [1]): 316 nM
